Laboratory results taken from ChEMBL document CHEMBL1201862, “PubChem BioAssay data set” (2004).
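Five compound concentrations were applied to cells in 96-well plates for 48 hours; endpoints were derived by simple linear interpolation of the resulting dose-response curve. Here, GI50 denotes the concentration required for 50% inhibition of growth.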 The source made the active and inactive calls. No stated cut-off is given here; in the data, active = GI50 up to about 1.1 µM and inactive = higher.

Experiments:
Experiment in all cases: NCI tumour cell line growth inhibition, 48 h
IGROV-1 = test system: IGROV-1
HOP-92 = test system: HOP-92
TK-10 = test system: TK-10
SF-268 = test system: SF-268
OVCAR-8 = test system: OVCAR-8
HCT-116 = test system: HCT-116
DU-145 = test system: DU-145
786-0 = test system: 786-0
NCI-H460 = test system: NCI-H460
U-251 = test system: U-251
SN12C = test system: SN12C
SF-295 = test system: SF-295
RXF 393 = test system: RXF 393
SW-620 = test system: SW-620
HL-60 = test system: HL-60
HCT-15 = test system: HCT-15
ACHN = test system: ACHN
NCI/ADR-RES = test system: NCI/ADR-RES

Row | Structure (SMILES) | GI50 (IGROV-1) | GI50 (HOP-92) | GI50 (TK-10) | GI50 (SF-268) | GI50 (OVCAR-8) | GI50 (HCT-116) | GI50 (DU-145) | GI50 (786-0) | GI50 (NCI-H460) | GI50 (U-251) | GI50 (SN12C) | GI50 (SF-295) | GI50 (RXF 393) | GI50 (SW-620) | GI50 (HL-60) | GI50 (HCT-15) | GI50 (ACHN) | GI50 (NCI/ADR-RES)
1 | CCCC(c1cc(C(C)(C)C)c(O)cc1C)c1cc(C(C)(C)C)c(O)cc1C | 4.04 µM (inactive) | 8.41 µM (inactive) | 3.2 µM (inactive) | 4.4 µM (inactive) | 4.03 µM (inactive) | 1.91 µM (inactive) | 4.05 µM (inactive) | 2.31 µM (inactive) | 1.95 µM (inactive) | 2.65 µM (inactive) | 1.94 µM (inactive) | 2.4 µM (inactive) | 1.99 µM (inactive) | 3.23 µM (inactive) | 2.27 µM (inactive) | 3.35 µM | 2.67 µM (inactive) | 3.4 µM (inactive)
2 | CN1c2ccccc2C(=O)NC12CCN(Cc1ccccc1)CC2 | 69.2 µM (inactive) | 18.3 µM (inactive) | 41 µM (inactive) | 89.7 µM (inactive) | 69.2 µM (inactive) | 44.9 µM (inactive) | 71.6 µM (inactive) | 62.4 µM (inactive) | 39.4 µM (inactive) | 40.1 µM (inactive) | 49.4 µM (inactive) | 32 µM (inactive) | > 100 µM (inactive) | 55.3 µM (inactive) | 30.5 µM (inactive) | 42.5 µM | 31.2 µM (inactive) | > 100 µM (inactive)
3 | CSc1nc(C#N)c(N)n1C | > 100 µM (inactive) | > 100 µM (inactive) | > 100 µM (inactive) | > 100 µM (inactive) | > 100 µM (inactive) | > 100 µM (inactive) | 64.1 µM (inactive) | > 100 µM (inactive) | > 100 µM (inactive) | > 100 µM (inactive) | > 100 µM (inactive) | > 100 µM (inactive) | > 100 µM (inactive) | > 100 µM (inactive) | > 100 µM (inactive) | > 100 µM | > 100 µM (inactive) | > 100 µM (inactive)
4 | O=C1C(Cl)=C(N2CCN(c3ccccn3)CC2)C(=O)c2ncccc21 | 2.64 µM (inactive) | 1.88 µM (inactive) | 3.97 µM (inactive) | 2.74 µM (inactive) | 1.32 µM (inactive) | 1.74 µM (inactive) | 11.8 µM (inactive) | 1.63 µM (inactive) | 3.05 µM (inactive) | 4.38 µM (inactive) | 2.61 µM (inactive) | 5.69 µM (inactive) | 2.17 µM (inactive) | 2.03 µM (inactive) | 0.668 µM (active) | 1.66 µM | 2.33 µM (inactive) | 2.33 µM (inactive)
5 | C[C@H](CCc1nc(C#N)c(N)o1)[C@H]1CC[C@H]2[C@@H]3[C@@H](O)CC4C[C@@H](O)CC[C@]4(C)[C@H]3C[C@@H](O)[C@]12C (some centres undefined) | 10.2 µM (inactive) | 22.2 µM (inactive) | 24.2 µM (inactive) | 20.2 µM (inactive) | 12.9 µM (inactive) | 21.4 µM (inactive) | 28.1 µM (inactive) | 19.2 µM (inactive) | 21.9 µM (inactive) | 20.7 µM (inactive) | 20.6 µM (inactive) | 22.8 µM (inactive) | 16 µM (inactive) | 23.5 µM (inactive) | 3.62 µM (inactive) | 48.3 µM | 26.4 µM (inactive) | > 78.9 µM (inactive)
6 | COc1ccc2c3c1OC1C(=O)C=CC4(O)C(C2)NCC[C@@]314 (some centres undefined) | 5.71 µM (inactive) | 5.26 µM (inactive) | 1.68 µM (inactive) | 2.07 µM (inactive) | 1.69 µM (inactive) | 1.73 µM (inactive) | 3.24 µM (inactive) | 1.58 µM (inactive) | 3.37 µM (inactive) | 2.13 µM (inactive) | 1.51 µM (inactive) | 3.69 µM (inactive) | 1.39 µM (inactive) | 1.11 µM (active) | 1.8 µM (inactive) | 2.11 µM | 2.23 µM (inactive) | 4 µM (inactive)
7 | C/C(=N\NC(=S)NC(C)C)c1nc2cccnc2[nH]1 | 19.8 µM (inactive) | 39.9 µM (inactive) | 21.3 µM (inactive) | 14.8 µM (inactive) | 7.98 µM (inactive) | 11.3 µM (inactive) | 51.1 µM (inactive) | 20.3 µM (inactive) | 14 µM (inactive) | 21.3 µM (inactive) | > 56.5 µM (inactive) | 12 µM (inactive) | 33.8 µM (inactive) | 12.1 µM (inactive) | 8.93 µM (inactive) | 11.3 µM | 21.9 µM (inactive) | 40.5 µM (inactive)
8 | O=c1[nH]c2ccc(Cl)cc2o1 | > 100 µM (inactive) | 17.5 µM (inactive) | > 100 µM (inactive) | > 100 µM (inactive) | > 100 µM (inactive) | > 100 µM (inactive) | > 100 µM (inactive) | > 100 µM (inactive) | > 100 µM (inactive) | > 100 µM (inactive) | > 100 µM (inactive) | > 100 µM (inactive) | > 100 µM (inactive) | > 100 µM (inactive) | > 100 µM (inactive) | > 100 µM | > 100 µM (inactive) | > 100 µM (inactive)
